This passage reports IC50 and ΔTm results from publication PMC12246139 (Scientific Reports, 2025).

Assay [1] has as its target T1, KRAS(WT) (Homo sapiens, UniProt P01116). Briefly: biochemical. The conditions noted are these: 10 nM KRAS(WT), 5 nM SOScat, 15 min preincubation; read-out: Nucleotide exchange IC50. As to the method: Our results imply that both inhibitors are highly dependent on their covalent interaction to G12C for efficient and potent RAS inhibition.
(§1) Nucleotide exchange assays using the QRET principle[63]–[65],[68] were performed in assay buffer containing 20 mM HEPES (pH 7.5) 1 mM MgCl2, 10 mM NaCl, 0.01% (v/v) Triton X-100. […] Thereafter, 6 μL of detection solution (3.5 μM MT2 and 10 nM Eu^3+-GTP) was added and reaction was initiated with 5 nM SOS^cat added in 3 μL volume. TRL-signals were monitored using Tecan Spark 20 M from Tecan Life Sciences (Männedorf, Switzerland) by using 340 and 620 nm excitation and emission wavelengths and 800 and 400 μs delay and decay time, respectively. All concentrations are informed in a final 15 μL reaction volume in white 384-well low volume plates (Corning, USA). IC50 values were obtained using standard sigmoidal fitting functions from Origin 2016 software (Origin Lab, Northampton, MA).
with 10 nM KRAS(WT) and 5 nM SOScat, utilizing Eu3+-GTP (10 nM) TRL-signal protection upon
KRAS binding according to QRET principle.
(§2) (1 picture or pasted object on this page, not shown here)

The target of assay [2] is T1, KRAS(WT). As to the kind of experiment: FRET-Probe thermal stability assay. On the set-up: full-length KRAS(G12C), KRAS(G12C/H95L), KRAS(G12C/Y96D) and KRAS(WT); host or cells: E. coli. Type of assay: binding. Here is the method: (§3) FRET-Probe thermal stability assays[69] were conducted in triplicates in an assay buffer containing 10 mM HEPES (pH 7.5), 10 mM NaCl, 0.5 mM MgCl2, and 0.01% (v/v) Brij-30. Assay was also performed in an assay buffer without MgCl2. […] Thereafter, 8 μL of the 1 × FRET-Probe was added, and signals were monitored using step-by-step protocol by heating from 34–96 °C using 2 °C steps and heating the sample 1.5 min at each step prior measurement using 340 and 665 nm excitation and emission wavelengths and 50 and 200 μs delay and decay time, respectively. Thermal heating was performed with a PTC-100 Programmable Thermal Controller (MJ Research, Inc., Watertown, MA). All concentrations are informed in a final 20 μL reaction volume in white 96-well PCR-plate (BioRad, USA). Tm values were obtained using standard sigmoidal fitting functions from Origin 2016 software. […]
TR-FRET signals from the triplicate reactions were monitored for every 2 °C, up to 96 °C. Normalized thermal curves with or without MgCl2 (0.2 mM) are shown in A and C, and the same data is presented as TR-FRET signals in B and D, respectively.
as §2

In assay [3] the target is T2, KRAS(G12C) (Homo sapiens, UniProt P01116, G12C). Briefly: FRET-Probe thermal stability assay. Type of assay: binding. Here is the method:
(§4) In these assays, no external protein (SOS^cat) is used and only KRAS and inhibitors are present. First, we conducted a chemical stability assay by utilizing the FRET-Probe technique. In this system, time dependent KRAS (20 nM) denaturation is monitored in 1 M urea solution after KRAS preincubation with varying inhibitor concentration. […] In this assay, we observed an exceptionally high stability increase with both inhibitors (Fig. 5d; Fig. S17).
as §3
heating with the FRET-Probe. KRAS(G12C) was preincubated 15 min prior the thermal ramping, in […]
which the TR-FRET signals from the triplicate reactions were monitored for every 2 °C, up to 96 °C.
Normalized thermal curves with or without MgCl2 (0.2 mM) are shown in A and C, and the same data […]
is presented as TR-FRET signals in B and D, respectively.
as §2

Assay [4] has as its target T2, KRAS(G12C). As to the kind of experiment: biochemical. The class given is binding. The conditions noted are these: 20 nM KRAS(G12C), 1 M urea, 120 min at room temperature; read-out: Chemical stability IC50. As to the method:
(§5) Nucleotide exchange inhibition was monitored in an assay with 10 nM KRAS and 5 nM SOS^cat, utilizing Eu^3+-GTP TRL-signal protection upon KRAS binding according to QRET principle. […] (d) Overview of the assay results presented in (a–c) and Figs. S17, S19–S20.
as §4
(§6) FRET-Probe chemical stability assays[69] were performed in triplicates in an assay buffer containing 10 mM HEPES (pH 7.5), 10 mM NaCl, and 0.01% (v/v) Brij-30 (with or without 0.2 mM MgCl2) and destabilizing detection buffer with 10 mM HEPES (pH 7.5), 1 M urea, and 0.01% (v/v) Brij-30. […] Thereafter, 16 μL of the 1 × FRET-Probe was added in destabilizing detection buffer and TR-FRET signal was monitored multiple times during 120 min incubation (parameters as in thermal stability assay). All concentrations are informed in a final 20 μL reaction volume in white 384-well low volume plates (Corning, USA). IC50 values were obtained by blotting the signals obtained with different inhibitor concentrations at the selected time point against the inhibitor concentration and using standard sigmoidal fitting functions from Origin 2016 software.

Assay [5] deals with T3, KRAS(G12C/H95L) (Homo sapiens, UniProt P01116, G12C/H95L). As to the kind of experiment: biochemical. Type of assay: binding. Particulars: 20 nM KRAS(G12C/H95L), 1 M urea, 120 min at room temperature; read-out: Chemical stability IC50. Here is the method: as §5, §4, §6
Assay [6] has as its target T4, KRAS(G12C/Y96D) (Homo sapiens, UniProt P01116, G12C/Y96D). Briefly: biochemical. The class given is binding. The conditions noted are these: 20 nM KRAS(G12C/Y96D), 1 M urea, 120 min at room temperature; read-out: Chemical stability IC50. Here is the method: as §5, §4, §6
The target of assay [7] is HRAS(G12C) (Homo sapiens, UniProt P01112, G12C). As to the kind of experiment: biochemical. Particulars: 10 nM HRAS(G12C), 5 nM SOScat, 15 min preincubation; read-out: Nucleotide exchange IC50. As to the method: as §5
(§7) SII-P inhibitor activities can differ among RAS isoforms (KRAS/HRAS/NRAS). These isoforms differ only in position 95 in the SII-P (Fig. S18).
as §1

The target of assay [8] is NRAS(G12C) (Homo sapiens, UniProt P01111, G12C). Briefly: biochemical. The conditions noted are these: 10 nM NRAS(G12C), 5 nM SOScat, 15 min preincubation; read-out: Nucleotide exchange IC50. As to the method: as §5, §7, §1
In assay [9] the target is T3, KRAS(G12C/H95L). As to the kind of experiment: biochemical. The conditions noted are these: 10 nM KRAS(G12C/H95L), 5 nM SOScat, 15 min preincubation; read-out: Nucleotide exchange IC50.
Excerpt: (§8) First, we performed a traditional nucleotide exchange assay using a single-label quenching resonance energy transfer (QRET) principle[63]–[65] and non-labeled full-length KRAS(G12C), (G12C/H95L), and (G12C/Y96D). The selection of the two double mutants was based on the observed interactions in the MD simulations (Figs. 2, 3), and the fact that acquired resistance with SII-P inhibitors is associated with these mutations, as clinically observed for sotorasib and adagrasib[66]–[68].
as §5, §1

In assay [10] the target is T4, KRAS(G12C/Y96D). Briefly: biochemical. The conditions noted are these: 10 nM KRAS(G12C/Y96D), 5 nM SOScat, 15 min preincubation; read-out: Nucleotide exchange IC50.
Excerpt: as §8, §5, §1

In assay [11] the target is T2, KRAS(G12C). Briefly: biochemical. Particulars: 10 nM KRAS(G12C), 5 nM SOScat, 15 min preincubation; read-out: Nucleotide exchange IC50.

Where “and” joins values, the source holds several entries; their conditions need not be identical. Equal entries are not always repeated. Where two headings read alike, the source gives them in different places.

Sequence of HRAS(G12C) (P01112 1-169 G12C): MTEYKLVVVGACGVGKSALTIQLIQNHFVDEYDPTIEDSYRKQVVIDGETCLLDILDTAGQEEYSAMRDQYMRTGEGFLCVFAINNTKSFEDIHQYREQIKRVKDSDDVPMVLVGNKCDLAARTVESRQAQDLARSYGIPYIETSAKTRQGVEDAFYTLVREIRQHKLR
Sequence of NRAS(G12C) (P01111 1-169 G12C): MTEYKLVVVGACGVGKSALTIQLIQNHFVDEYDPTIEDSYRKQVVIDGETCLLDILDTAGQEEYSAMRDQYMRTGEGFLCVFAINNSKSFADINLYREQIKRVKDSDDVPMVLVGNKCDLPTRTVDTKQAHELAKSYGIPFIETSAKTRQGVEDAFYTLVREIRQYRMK

The term IC50 denotes the concentration at which inhibition is half-maximal. As a reminder, the ΔTm is the shift of the melting midpoint relative to a reference. For `C=CC(=O)N1CCN(c2nc(OC[C@@H]3CCCN3C)nc3c(F)c(-c4nc(N)cc(C)c4C(F)(F)F)c(Cl)cc23)[C@@H](C)C1` [GDC-6036, divarasib], the half-maximal inhibitory concentration (IC50) in assay [1] worked out at 291 ± 23 nM; in [4], 5.9 ± 0.9 nM; in assay [5] it was 15 ± 3.4 nM; in assay [6] it was 106 ± 6 nM; in assay [7], 32.9 ± 2.2 nM; in assay [8], 29.8 ± 2.35 nM. Also, the half-inhibitory concentration (IC50) stood at 12 ± 3 nM in [9] and 229 ± 59 nM in [10]. Further, the ΔTm at 10 µM came to 5.2 °C in assay [2] (20 nM KRAS(WT), 10,000 nM inhibitor, first value (footnote f), one of the with / without Mg2+ conditions, read-out: Thermal stability ΔTm) and 5.5 °C in [2] (20 nM KRAS(WT), 10,000 nM inhibitor, second value (footnote g), the other of the with / without Mg2+ conditions, read-out: Thermal stability ΔTm). Also, the thermal shift (ΔTm) at 0.05 µM turned out to be 23.7 °C in assay [3] (20 nM KRAS(G12C), 50 nM inhibitor, first value (footnote c), one of the with / without Mg2+ conditions, read-out: Thermal stability ΔTm) and 32.5 °C in assay [3] (20 nM KRAS(G12C), 50 nM inhibitor, second value (footnote d), the other of the with / without Mg2+ conditions, read-out: Thermal stability ΔTm).

On to `C=CC(=O)N1CCN2C(=O)c3cc(F)c(-c4ccc(F)c5sc(N)c(C#N)c45)c(Cl)c3OCC[C@H]2C1` [LY3537982, olomorasib], for which the IC50 in assay [1] was 343 ± 23 nM; in assay [4] it was 0.368 nM and 0.37 nM; in assay [5], 0.345 nM and 0.35 nM; in assay [6] it was 1.6 ± 0.1 nM; in assay [7] it was 0.48 ± 0.042 nM; in assay [8], 0.16 ± 0.013 nM. The half-maximal inhibitory concentration (IC50) in [9] was 0.121 nM and 0.12 nM; in assay [10], 2.8 ± 0.8 nM; in assay [11], 0.956 ± 0.3 nM. The ΔTm at 10 µM in assay [2] (read-out: Thermal stability ΔTm, 20 nM KRAS(WT), 10,000 nM inhibitor, first value (footnote f), one of the with / without Mg2+ conditions) stood at 5.1 °C; in assay [2] (read-out: Thermal stability ΔTm, 20 nM KRAS(WT), 10,000 nM inhibitor, second value (footnote g), the other of the with / without Mg2+ conditions), 4.9 °C. Further, the shift in melting temperature (ΔTm) at 0.05 µM in assay [3] (read-out: Thermal stability ΔTm, 20 nM KRAS(G12C), 50 nM inhibitor, first value (footnote c), one of the with / without Mg2+ conditions) stood at 20.5 °C; in assay [3] (read-out: Thermal stability ΔTm, 20 nM KRAS(G12C), 50 nM inhibitor, second value (footnote d), the other of the with / without Mg2+ conditions), 30.4 °C.
